ChEMBL document CHEMBL1201861, “Genomics of Drug Sensitity in Cancer screening data, Wellcome Trust Sanger Institute”

What was measured:
Assay in all cases: cells
[1] = test system: A2058; format: functional, cell-based; conditions: Homo sapiens;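 also: reduction of A2058 cell growth, read out with a viability assay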
Description: SANGER: Inhibition of human A2058 cell growth in a cell viability assay.

[2] = test system: K562; format: functional, cell-based; conditions: Homo sapiens
Description: SANGER: Inhibition of human K-562 cell growth in a cell viability assay.

[3] = test system: SF-295; format: functional, cell-based, Homo sapiens; conditions: Homo sapiens, SF-295; read-out: IC50;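 also: growth inhibition of SF-295 cells, read out with a cell viability assay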
Description: SANGER: Inhibition of human SF295 cell growth in a cell viability assay.

[4] = test system: TK-10; format: functional, cell-based, Homo sapiens; conditions: Homo sapiens, TK-10;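 also: growth inhibition of TK-10 cells, read out in a cell viability assay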
Description: SANGER: Inhibition of human TK10 cell growth in a cell viability assay.

[5] = test system: NCI-H1792; format: functional, cell-based, Homo sapiens; conditions: Homo sapiens, NCI-H1792;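 also: growth inhibition of human NCI-H1792 cells, read out as cell viability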
Description: SANGER: Inhibition of human NCI-H1792 cell growth in a cell viability assay.

[6] = test system: NMC-G1; format: functional, cell-based, Homo sapiens; conditions: Homo sapiens, NMC-G1;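 also: growth inhibition of the NMC-G1 cell line, measured with a cell viability read-out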
Description: SANGER: Inhibition of human NMC-G1 cell growth in a cell viability assay.

[7] = test system: 8505C; format: functional, cell-based, Homo sapiens; conditions: Homo sapiens, 8505C
Description: SANGER: Inhibition of human 8505C cell growth in a cell viability assay.

[8] = test system: KE-37; format: functional, cell-based; conditions: Homo sapiens;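 also: growth inhibition of KE-37 cells, read out with a cell viability assay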
Description: SANGER: Inhibition of human KE-37 cell growth in a cell viability assay.

[9] = test system: SN12C; format: functional, cell-based, Homo sapiens; conditions: Homo sapiens, SN12C;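 also: growth inhibition of human SN12C cells, measured by a cell viability assay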
Description: SANGER: Inhibition of human SN12C cell growth in a cell viability assay.

[10] = test system: MLMA; format: functional, cell-based, Homo sapiens; conditions: Homo sapiens, MLMA;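 also: growth inhibition of MLMA cells (human), determined through a cell viability readout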
Description: SANGER: Inhibition of human MLMA cell growth in a cell viability assay.

[11] = test system: HCE-4; format: functional, cell-based, Homo sapiens; conditions: Homo sapiens, HCE-4;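 also: cell viability assay measuring inhibition of growth in the human HCE-4 cell line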
Description: SANGER: Inhibition of human HCE-4 cell growth in a cell viability assay.

[12] = test system: PC-14; format: functional, cell-based, Homo sapiens; conditions: Homo sapiens, PC-14;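 also: cell viability assay measuring inhibition of PC-14 cell growth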
Description: SANGER: Inhibition of human PC-14 cell growth in a cell viability assay.

[13] = test system: T98G; format: functional, cell-based, Homo sapiens; conditions: Homo sapiens, T98G;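 also: growth inhibition of T98G cells, read out by a cell viability assay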
Description: SANGER: Inhibition of human T98G cell growth in a cell viability assay.

[14] = test system: NCI-H23; format: functional, cell-based, Homo sapiens; conditions: Homo sapiens, NCI-H23;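 also: cell viability assay measuring growth inhibition of NCI-H23 cells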
Description: SANGER: Inhibition of human NCI-H23 cell growth in a cell viability assay.

[15] = test system: KARPAS-45; format: functional, cell-based; conditions: Homo sapiens;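 also: inhibition of cell line growth, read out through a viability assay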
Description: SANGER: Inhibition of human KARPAS-45 cell growth in a cell viability assay.

[16] = test system: DoTc2-4510; format: functional, cell-based, Homo sapiens; conditions: Homo sapiens, DoTc2-4510
[17] = test system: LB2241-RCC; format: functional, cell-based, Homo sapiens; conditions: Homo sapiens, LB2241-RCC;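 also: cell viability assay measuring how strongly the cultured human renal carcinoma line is prevented from growing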
Description: SANGER: Inhibition of human LB2241-RCC cell growth in a cell viability assay.

[18] = test system: 8305C; format: functional, cell-based, Homo sapiens; conditions: Homo sapiens, 8305C
Description: SANGER: Inhibition of human 8305C cell growth in a cell viability assay.

[19] = test system: SW837; format: functional, cell-based, Homo sapiens; conditions: Homo sapiens, SW837;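 also: growth inhibition of SW837 cells, determined with a cell viability assay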
Description: SANGER: Inhibition of human SW837 cell growth in a cell viability assay.

[20] = test system: 647-V; format: functional, cell-based, Homo sapiens; conditions: Homo sapiens, 647-V;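 also: growth inhibition of 647-V cells, read out with a cell viability assay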
Description: SANGER: Inhibition of human 647-V cell growth in a cell viability assay.

[21] = test system: Calu-3; format: functional, cell-based, Homo sapiens; conditions: Homo sapiens, Calu-3;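 also: growth inhibition of human Calu-3 cells, determined with a cell viability assay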
Description: SANGER: Inhibition of human Calu-3 cell growth in a cell viability assay.

[22] = test system: NCI-H650; format: functional, cell-based, Homo sapiens; conditions: Homo sapiens, NCI-H650;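 also: growth inhibition of NCI-H650 cells, read out by a viability assay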
Description: SANGER: Inhibition of human NCI-H650 cell growth in a cell viability assay.

[23] = test system: MPP-89; format: functional, cell-based, Homo sapiens; conditions: Homo sapiens, MPP-89;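 also: growth inhibition of human MPP-89 cells, read out with a cell viability assay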
Description: SANGER: Inhibition of human MPP-89 cell growth in a cell viability assay.

[24] = test system: NH-12; format: functional, cell-based, Homo sapiens; conditions: Homo sapiens, NH-12;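 also: growth inhibition of NH-12 cells, read out with a cell viability assay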
Description: SANGER: Inhibition of human NH-12 cell growth in a cell viability assay.

[25] = test system: SW684; format: functional, cell-based, Homo sapiens; conditions: Homo sapiens, SW684;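 also: growth inhibition of human SW684 cells, measured by a cell viability assay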
Description: SANGER: Inhibition of human SW684 cell growth in a cell viability assay.

[26] = test system: SK-PN-DW; format: functional, cell-based; conditions: Homo sapiens;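 also: growth inhibition measured with a viability assay on these cells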
Description: SANGER: Inhibition of human SK-PN-DW cell growth in a cell viability assay.

[27] = test system: GR-ST; format: functional, cell-based; conditions: Homo sapiens
Description: SANGER: Inhibition of human GR-ST cell growth in a cell viability assay.

[28] = test system: MHH-NB-11; format: functional, cell-based, Homo sapiens; conditions: Homo sapiens, MHH-NB-11;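 also: growth inhibition of human MHH-NB-11 cells, read out by a cell viability assay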
Description: SANGER: Inhibition of human MHH-NB-11 cell growth in a cell viability assay.

[29] = test system: MZ1-PC; format: functional, cell-based, Homo sapiens; conditions: Homo sapiens, MZ1-PC;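 also: cell viability assay measuring growth inhibition of human MZ1-PC cells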
Description: SANGER: Inhibition of human MZ1-PC cell growth in a cell viability assay.

[30] = test system: BHT-101; format: functional, cell-based, Homo sapiens; conditions: Homo sapiens, BHT-101
Description: SANGER: Inhibition of human BHT-101 cell growth in a cell viability assay.

[31] = test system: M059J; format: functional, cell-based, Homo sapiens; conditions: Homo sapiens, M059J;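 also: growth inhibition of M059J cells, read out with a cell viability assay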
Description: SANGER: Inhibition of human M059J cell growth in a cell viability assay.

[32] = test system: KMOE-2; format: functional, cell-based; conditions: Homo sapiens;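 also: growth inhibition of human KMOE-2 cells, read out with a cell viability assay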
Description: SANGER: Inhibition of human KMOE-2 cell growth in a cell viability assay.

[33] = test system: SW13; format: functional, cell-based, Homo sapiens; conditions: Homo sapiens, SW13;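 also: IC50 is inhibition of SW13 cell growth, read out with a cell viability assay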
Description: SANGER: Inhibition of human SW13 cell growth in a cell viability assay.

[34] = test system: Ca-Ski; format: functional, cell-based; conditions: Homo sapiens;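 also: cell viability assay measuring inhibition of Ca-Ski cell growth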
Description: SANGER: Inhibition of human Ca-Ski cell growth in a cell viability assay.

[35] = test system: A 172; format: functional, cell-based, Homo sapiens; conditions: Homo sapiens, A 172;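 also: growth inhibition of A172 cells, measured with a cell viability readout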
Description: SANGER: Inhibition of human A172 cell growth in a cell viability assay.

[36] = test system: TE-1; format: functional, cell-based, Homo sapiens; conditions: Homo sapiens, TE-1;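 also: growth inhibition of the human TE-1 cell line, read out with a cell viability assay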
Description: SANGER: Inhibition of human TE-1 cell growth in a cell viability assay.

[37] = test system: HT-29; format: functional, cell-based, Homo sapiens; conditions: Homo sapiens, HT-29;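 also: growth inhibition of human HT-29 cells, read out by a cell viability assay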
Description: SANGER: Inhibition of human HT-29 cell growth in a cell viability assay.

[38] = test system: NCI-H2452; format: functional, cell-based, Homo sapiens; conditions: Homo sapiens, NCI-H2452;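 also: growth inhibition of NCI-H2452 cells, read out with a cell viability assay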
Description: SANGER: Inhibition of human NCI-H2452 cell growth in a cell viability assay.

[39] = test system: TGW; format: functional, cell-based; conditions: Homo sapiens;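 also: growth inhibition of human TGW cells, read out with a cell viability assay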
Description: SANGER: Inhibition of human TGW cell growth in a cell viability assay.

[40] = test system: CAL-39; format: functional, cell-based, Homo sapiens; conditions: Homo sapiens, CAL-39;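 also: cell viability assay measuring growth inhibition of CAL-39 cells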
Description: SANGER: Inhibition of human CAL-39 cell growth in a cell viability assay.

[41] = test system: CAL-54; format: functional, cell-based, Homo sapiens; conditions: Homo sapiens, CAL-54;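 also: growth inhibition of CAL-54 cells, read out by a viability measurement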
Description: SANGER: Inhibition of human CAL-54 cell growth in a cell viability assay.

[42] = test system: SNU-C2B; format: functional, cell-based, Homo sapiens; conditions: Homo sapiens, SNU-C2B;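 also: cell viability readout used to measure compound-driven suppression of SNU-C2B cell proliferation, IC50 marking half-maximal growth inhibition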
Description: SANGER: Inhibition of human SNU-C2B cell growth in a cell viability assay.

[43] = test system: TCC-SUP; format: functional, cell-based, Homo sapiens; conditions: Homo sapiens, TCC-SUP;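 also: growth inhibition of TCC-SUP cells, read out with a cell viability assay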
Description: SANGER: Inhibition of human TCCSUP cell growth in a cell viability assay.

[44] = test system: HTC-C3; format: functional, cell-based, Homo sapiens; conditions: Homo sapiens, HTC-C3;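 also: inhibition of cell growth, read out with a cell viability assay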
Description: SANGER: Inhibition of human HTC-C3 cell growth in a cell viability assay.

[45] = test system: KU812 cell line; format: functional, cell-based; conditions: Homo sapiens;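 also: growth inhibition of KU812 cells, read out with a cell viability assay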
Description: SANGER: Inhibition of human KU812 cell growth in a cell viability assay.

[46] = test system: DBTRG-05MG; format: functional, cell-based, Homo sapiens; conditions: Homo sapiens, DBTRG-05MG;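 also: cell viability assay measuring growth inhibition of human DBTRG-05MG cells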
Description: SANGER: Inhibition of human DBTRG-05MG cell growth in a cell viability assay.

[47] = test system: COLO-829; format: functional, cell-based, Homo sapiens; conditions: Homo sapiens, COLO-829
Description: SANGER: Inhibition of human COLO-829 cell growth in a cell viability assay.

[48] = test system: SK-LU-1; format: functional, cell-based, Homo sapiens; conditions: Homo sapiens, SK-LU-1;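 also: cell viability assay measuring growth inhibition of human SK-LU-1 cells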
Description: SANGER: Inhibition of human SK-LU-1 cell growth in a cell viability assay.

[49] = test system: LN-405; format: functional, cell-based, Homo sapiens; conditions: Homo sapiens, LN-405
Description: SANGER: Inhibition of human LN-405 cell growth in a cell viability assay.

[50] = test system: MC-IXC; format: functional, cell-based, Homo sapiens; conditions: Homo sapiens, MC-IXC;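 also: growth inhibition of MC-IXC cells, read out with a cell viability assay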
Description: SANGER: Inhibition of human MC-IXC cell growth in a cell viability assay.

[51] = test system: CTV-1; format: functional, cell-based; conditions: Homo sapiens;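 also: growth inhibition of the cell line, read out with a cell viability assay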
Description: SANGER: Inhibition of human CTV-1 cell growth in a cell viability assay.

[52] = test system: OE33; format: functional, cell-based, Homo sapiens; conditions: Homo sapiens, OE33;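 also: growth inhibition of human OE33 cells, measured by a cell viability assay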
Description: SANGER: Inhibition of human OE33 cell growth in a cell viability assay.

## C[C@]1(O)C[C@@H](c2nc(-c3ccc4ccc(-c5ccccc5)nc4c3)c3c(N)nccn32)C1 [LINSITINIB]
[1]
  IC50: > 2560 nM
[2]
  IC50: > 2560 nM
[3]
  IC50: > 2560 nM
[4]
  IC50: > 2560 nM
[5]
  IC50: > 2560 nM
[6]
  IC50: > 2560 nM
[7]
  IC50: > 2560 nM
[8]
  IC50: > 2560 nM
[9]
  IC50: > 2560 nM
[10]
  IC50: > 2560 nM
[11]
  IC50: > 2560 nM
[12]
  IC50: > 2560 nM
[13]
  IC50: > 2560 nM
[14]
  IC50: > 2560 nM
[15]
  IC50: > 2560 nM
[16]
  IC50: > 2560 nM
[17]
  IC50: > 2560 nM
[18]
  IC50: > 2560 nM
[19]
  IC50: > 2560 nM
[20]
  IC50: > 2560 nM
[21]
  IC50: > 2560 nM
[22]
  IC50: 214 nM
[23]
  IC50: > 2560 nM
[24]
  IC50: 760 nM
[25]
  IC50: > 2560 nM
[26]
  IC50: 1910 nM
[27]
  IC50: > 2560 nM
[28]
  IC50: > 2560 nM
[29]
  IC50: > 2560 nM
[30]
  IC50: > 2560 nM
[31]
  IC50: > 2560 nM
[32]
  IC50: > 2560 nM
[33]
  IC50: > 2560 nM
[34]
  IC50: > 2560 nM
[35]
  IC50: > 2560 nM
[36]
  IC50: 1710 nM
[37]
  IC50: 242 nM
[38]
  IC50: > 2560 nM
[39]
  IC50: > 2560 nM
[40]
  IC50: > 2560 nM
[41]
  IC50: > 2560 nM
[42]
  IC50: > 2560 nM
[43]
  IC50: > 2560 nM
[44]
  IC50: > 2560 nM
[45]
  IC50: > 2560 nM
[46]
  IC50: > 2560 nM
[47]
  IC50: > 2560 nM
[48]
  IC50: > 2560 nM
[49]
  IC50: > 2560 nM
[50]
  IC50: 1990 nM
[51]
  IC50: > 2560 nM
[52]
  IC50: > 2560 nM

## C=CCc1cccc(/C=N/NC(=O)CN2CCN(Cc3ccccc3)CC2)c1O [PAC-1]
[1]
  IC50: > 2560 nM
[2]
  IC50: > 2560 nM
[3]
  IC50: > 2560 nM
[4]
  IC50: > 2560 nM
[5]
  IC50: > 2560 nM
[6]
  IC50: > 2560 nM
[7]
  IC50: > 2560 nM
[8]
  IC50: 215 nM
[9]
  IC50: > 2560 nM
[10]
  IC50: > 2560 nM
[11]
  IC50: > 2560 nM
[12]
  IC50: > 2560 nM
[13]
  IC50: > 2560 nM
[14]
  IC50: > 2560 nM
[15]
  IC50: > 2560 nM
[16]
  IC50: > 2560 nM
[17]
  IC50: > 2560 nM
[18]
  IC50: > 2560 nM
[19]
  IC50: > 2560 nM
[20]
  IC50: > 2560 nM
[21]
  IC50: > 2560 nM
[22]
  IC50: > 2560 nM
[23]
  IC50: > 2560 nM
[24]
  IC50: 987 nM
[25]
  IC50: > 2560 nM
[26]
  IC50: > 2560 nM
[27]
  IC50: > 2560 nM
[28]
  IC50: > 2560 nM
[29]
  IC50: > 2560 nM
[30]
  IC50: > 2560 nM
[31]
  IC50: > 2560 nM
[32]
  IC50: > 2560 nM
[33]
  IC50: > 2560 nM
[34]
  IC50: > 2560 nM
[35]
  IC50: > 2560 nM
[36]
  IC50: > 2560 nM
[37]
  IC50: > 2560 nM
[38]
  IC50: > 2560 nM
[39]
  IC50: > 2560 nM
[40]
  IC50: > 2560 nM
[41]
  IC50: > 2560 nM
[42]
  IC50: > 2560 nM
[43]
  IC50: > 2560 nM
[44]
  IC50: > 2560 nM
[45]
  IC50: > 2560 nM
[46]
  IC50: > 2560 nM
[47]
  IC50: > 2560 nM
[48]
  IC50: > 2560 nM
[49]
  IC50: > 2560 nM
[50]
  IC50: > 2560 nM
[51]
  IC50: 1960 nM
[52]
  IC50: > 2560 nM

## CCC1=C[C@@H]2CN(C1)Cc1c([nH]c3ccccc13)[C@@](C(=O)OC)(c1cc3c(cc1OC)N(C)[C@H]1[C@@](O)(C(=O)OC)[C@H](OC(C)=O)[C@]4(CC)C=CCN5CC[C@]31[C@@H]54)C2 [VINORELBINE]
[1]
  IC50: 3.5 nM
[2]
  IC50: > 64 nM
[3]
  IC50: 12 nM
[4]
  IC50: > 64 nM
[5]
  IC50: > 64 nM
[6]
  IC50: 14.9 nM
[7]
  IC50: 4.42 nM
[8]
  IC50: 4.42 nM
[9]
  IC50: 33.1 nM
[10]
  IC50: 36.9 nM
[11]
  IC50: 20.8 nM
[12]
  IC50: 3.26 nM
[13]
  IC50: 18.9 nM
[14]
  IC50: 60.1 nM
[15]
  IC50: 5.74 nM
[16]
  IC50: 3.59 nM
[17]
  IC50: > 64 nM
[18]
  IC50: 4.92 nM
[19]
  IC50: > 64 nM
[20]
  IC50: 20.9 nM
[21]
  IC50: 18 nM
[22]
  IC50: 16.1 nM
[23]
  IC50: > 64 nM
[24]
  IC50: 27 nM
[25]
  IC50: 24.2 nM
[26]
  IC50: 12.5 nM
[27]
  IC50: 8.27 nM
[28]
  IC50: 17.7 nM
[29]
  IC50: 17.7 nM
[30]
  IC50: > 64 nM
[31]
  IC50: 14.1 nM
[32]
  IC50: > 64 nM
[33]
  IC50: 4.72 nM
[34]
  IC50: 19.1 nM
[35]
  IC50: 13.9 nM
[36]
  IC50: 13.1 nM
[37]
  IC50: 3.24 nM
[38]
  IC50: > 64 nM
[39]
  IC50: > 64 nM
[40]
  IC50: 4.26 nM
[41]
  IC50: > 64 nM
[42]
  IC50: 7.75 nM
[43]
  IC50: 27.1 nM
[44]
  IC50: 26.5 nM
[45]
  IC50: 9.3 nM
[46]
  IC50: 3.88 nM
[47]
  IC50: 0.105 nM
[48]
  IC50: 51.8 nM
[49]
  IC50: > 64 nM
[50]
  IC50: 1.49 nM
[51]
  IC50: 5.01 nM
[52]
  IC50: 20.4 nM
